This test concerns CEM cells HIV-1 protection, formazan growth assay. Nature of the test: NCI AIDS Antiviral Assay. The settings on record: for pIC50: measured here: growth of uninfected CEM cells. In outline:
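Soluble formazan readout of cell growth; CEM cells ± HIV-1; 5 drug concs. ≥50% protection → retest; ≥50% again = moderately active; reproducible 100% = confirmed active.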

pEC50, pIC50: −log10 of the molar value. The source made the active and inactive calls.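 The calls were made as follows: active = compounds giving half or more protection of infected cells from virus-caused growth loss, again on retest; inactive = the rest.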 Where a SMILES comes first, the peptide text is derived from it. The star is where a group is joined. Boc = CC(C)(C)OC(=O)*

In general, pEC50 refers to the EC50 on a negative log10 scale, so that one unit is a factor of ten. What is called pIC50 is the IC50 on a negative log10 scale, so that one unit is a factor of ten. Consider `CC(Cc1ccc(O)c(O)c1)C(C)Cc1ccc(O)c(O)c1` (stereo not given), for which the pEC50 is under 3.70 and the pIC50 was 5.05.
Regarding `Cc1ccc(-c2cc(=O)c3cc(C)c(C)c(C(=O)O)c3o2)cc1C`, the result was inactive.
Still for that read-out and setting: as for `COc1cc2c[n+]3ccc4cc(OC)c(OC)cc4c3cc2cc1O`, the entry is “inactive”.
Take `Cn1cc(NC(=O)Nc2cc(C(=O)Nc3cc(C(=O)Nc4cc(C(=O)Nc5ccc(S(=O)(=O)O)c6cc(S(=O)(=O)O)ccc56)n(C)c4)n(C)c3)n(C)c2)cc1C(=O)Nc1cc(C(=O)Nc2cc(C(=O)Nc3ccc(S(=O)(=O)O)c4cc(S(=O)(=O)O)ccc34)n(C)c2)n(C)c1`: the negative logarithm of the EC50 (pEC50) is 6.75 and the pIC50 was 4.12.
The like results for `CCCCCC1=CC(=O)C1(Cl)Cl` were, in that order, under 3.70 and 4.56.
The like results for `O=C(CC(C(=O)c1ccsc1)c1ccccc1)c1cccs1` (stereo not given) were, in that order, under 3.70 and 4.40.
The like results for `COc1ccc(/C=C2\CCCC(C(NO)c3ccc(OC)cc3)C2=NO)cc1` (stereo not given) were, in that order, under 4.72 and under 4.72.
Consider `COc1ccc(/C=C2\c3cc(OC)c(OC)cc3CCN2C(=O)c2ccccc2)cc1OC`, for which the pEC50 is under 3.70 and the negative-log IC50 (pIC50) was 4.24.
For `CCOC(=O)NNP(=O)(NNC(=O)OCC)c1ccccc1`, in that order: under 3.96 and under 3.96.
The like results for `Cc1nc(C)c(C(=O)Nc2cccc3c2C(=O)NC3=O)cc1C(=O)Nc1cccc2c1C(=O)NC2=O` were, in that order, under 3.71 and under 3.71.
For `N#C/C(C(=N)c1ccccc1)=C1\SS/C(=C(\C#N)C(=N)c2ccccc2)S1`, in that order: under 3.70 and 5.22.
With `O=C1CSCN1N1CSCC1=O`, the pEC50 is under 3.70 and the pIC50 was under 3.70.
Consider `Cc1cn(C2CC(O)C(CN(O)C(N)=O)O2)c(=O)[nH]c1=O` (stereo not given), for which the pEC50 was under 4.00 and the negative logarithm of the IC50 (pIC50) was under 4.00.
Take `COc1cc(/C=C2\SC(=S)N(/C=C3\C(=O)C=C(C)OC3=O)C2=O)cc(OC)c1OC`: the pEC50 was under 3.70 and the pIC50 is 4.74.
For `CC1=C(C(N)=O)C(c2ccncc2)C(C#N)=C2SCC(=O)N12` (stereo not given), in that order: under 3.70 and under 3.70.
On to `Cc1ccsc1/C=N/Nc1nncc2ccccc12`, for which the pEC50 is under 3.70 and the negative logarithm of the IC50 (pIC50) is 4.60.
For `Cc1cc(S(=O)(=O)Nc2nc(Nc3ccc(Cl)cc3)nn2C)c(S)cc1Cl`, in that order: under 3.70 and 4.08.
The like results for `COc1ccc(-n2sc3ncccc3c2=O)cc1` were, in that order, under 4.74 and 5.22.
For `Oc1cccc2c1N1CCN2CC1`, in that order: under 3.70 and under 3.70.
Turning to `O=C1CN(CCN2CCOCC2)CC(=O)N2CCCCN12`, the pEC50 is under 3.70 and the pIC50 was under 3.70.
Consider `COc1ccc2c(c1)CCN1C2CCN2C(=O)CCC21` (stereo not given), for which the pEC50 is under 3.04 and the pIC50 is under 3.04.
For `S=C(Nc1cccc(Cl)c1)Nc1ccccn1`, the pEC50 was under 3.70 and the negative logarithm of the IC50 (pIC50) was under 3.70.
As to `CC1=C[C@H]2C[C@@]3(C)O[C@@H]([C@]4(C)CC[C@H]([C@@H](C)C(=O)O)OO4)CC3C(C)(C)[C@H]2CC1` (stereo not given in full), the outcome was inactive.
`Cc1nc2ccc(S(=O)(=O)Nc3ccc(Cl)cc3)cc2c(=O)n1NC(=O)CNc1ccc(Cl)cc1`: the pEC50 is under 3.70 and the negative-log IC50 (pIC50) was under 3.70.
Molecule `O=C(CCCC[n+]1ccccc1)Sc1ccccc1C(=O)Nc1ccc(S(=O)(=O)Nc2cnc3ccccc3n2)cc1` showed a pEC50 of 4.91 and a negative logarithm of the IC50 (pIC50) of 4.72.
The like results for `Clc1ccc(/C(=C\c2ccccc2)Cn2ccnc2)cc1` were, in that order, under 3.70 and 4.79.
The like results for `CCCCCOP(=O)(OCCCCC)C(NC(C)=O)(C(=O)OCC)C(F)(F)F` (stereo not given) were, in that order, under 3.70 and 3.96.
For `CC(Nc1ccc(Cl)c(Cl)c1)c1ccncc1` (stereo not given), in that order: under 3.70 and 4.54.
As for `N#C/C(=C\c1cc(Cl)ccc1O)C1CCC([N+](=O)[O-])CC1` (stereo not given), the pEC50 is under 3.70 and the pIC50 was 4.52.
For `CCOC(=O)[C@H](Cc1ccccc1)NC(=O)c1nc[nH]c1[N+](=O)[O-]`, in that order: under 3.27 and 3.43.
The like results for `CCOC(=O)C(C(O)c1ccc([N+](=O)[O-])cc1)P(=O)(OCC)OCC` (stereo not given) were, in that order, under 3.18 and 4.03.
The like results for `CC(C)(SSC(C)(C)C1NC(=O)NC1=O)C1NC(=O)NC1=O` (stereo not given) were, in that order, under 3.70 and 3.92.
Take `O=C(CCc1ccc(O)c(O)c1)NCCc1cc(O)cc(O)c1`: the outcome was inactive.
`FC1=C2CCCCCC2SC1(F)F` (stereo not given): the pEC50 is under 3.70 and the pIC50 was 4.49.
For `CC1NC(=O)c2cc(=O)n(C)c(O)c21` (stereo not given), in that order: under 3.68 and under 3.68.
The like results for `O=C(NNC(=O)c1ccccn1)c1ccccn1` were, in that order, under 3.70 and 5.33.
The like results for `O=C(Nc1cc(Cl)ccc1Cl)C(=O)C(c1cnc2ccccc2n1)[N+](=O)[O-]` (stereo not given) were, in that order, under 4.05 and 4.41.
As to `Cc1c(C)c2c(c(N)c1C#N)C(=O)N(CCN1CCNCC1)C2=O`, the pEC50 was under 3.70 and the pIC50 is 4.69.
Regarding `CC(CCN1CCN(CCC(C)CC(C)(C)C)S1(=O)=O)CC(C)(C)C` (stereo not given), the result was inactive.
Take `Cc1nn(C(=O)c2ccccc2O)c2c1C(c1ccco1)SC(N)=N2` (stereo not given): the pEC50 is under 4.70 and the pIC50 was 5.91.
For `Cc1ccc(C(=O)Nc2ccc(S(=O)(=O)O)c3cc(S(=O)(=O)O)cc(S(=O)(=O)O)c23)cc1NC(=O)Nc1cc(C(=O)Nc2ccc(S(=O)(=O)O)c3cc(S(=O)(=O)O)cc(S(=O)(=O)O)c23)ccc1C`, in that order: 3.86 and 3.68.
Turning to `COC(=O)c1cc(C(=CCC[C@H]2CC[C@@]3(C)C(CCC4C3CC[C@@]3(C)C4CC[C@@H]3C(C)CCCC(C)C)C2)c2cc(Cl)c(OC(=O)c3ccccc3)c(C(=O)OC)c2)cc(Cl)c1OC(=O)c1ccccc1` (stereo not given in full), the pEC50 was under 3.70 and the pIC50 was under 3.70.
On to `CCn1c2ccccc2c2c3ncc4cccn4c3ccc21`, for which the pEC50 was under 3.70 and the negative-log IC50 (pIC50) is 3.87.
For `Cc1c(C(=O)CSc2nc3ccc([N+](=O)[O-])cc3[nH]2)c(=O)n(-c2ccccc2)n1C`, in that order: under 4.77 and under 4.77.
Regarding `COc1ccc(/C(Cl)=C(\C=O)c2ccc(OC)c(OC)c2)cc1OC`, the pEC50 is under 3.60 and the negative-log IC50 (pIC50) was under 3.60.
As for `CCOC(=O)CCC(NC(=O)c1ccc(NCc2ccc3nc(-c4ccccc4)c(Cl)nc3c2)cc1)C(=O)OCC` (stereo not given), the pEC50 was under 5.32 and the negative logarithm of the IC50 (pIC50) is under 5.32.
Take `CC1(C)COC(=O)N1`: the pEC50 was under 2.81 and the negative logarithm of the IC50 (pIC50) is under 2.81.
With `CC1(C)OC2OC(C(COS(=O)(=O)C(F)(F)F)N=[N+]=[N-])C(OC(=O)c3ccccc3)C2O1` (stereo not given), the pEC50 was under 3.70 and the pIC50 is under 3.70.
In the case of `C[C@]12CCC(=O)O[C@H]1CCCCO2`, the pEC50 is under 3.70 and the pIC50 was under 3.70.
As to `CCC(=O)C1(c2cccc(OC)c2)CCN(C)CC1`, the pEC50 is under 3.08 and the pIC50 is 3.34.
With `Cc1c(C(=O)CC(=O)C(=O)Nc2c(C(C)C)cccc2C(C)C)[n+](=O)c2ccccc2n1[O-]`, the pEC50 was under 5.22 and the negative-log IC50 (pIC50) was under 5.22.
Consider `C[Se]CCC1OC[C@H]2O[C@@H](n3cc(C)c(=O)[nH]c3=O)C[C@H]2N1O` (stereo not given in full), for which the result was active.
As to `CC(C)(C)c1cc(C(C)(C)O)c2c(c1)C(C)(C)OS2(C)Cl` (stereo not given), the pEC50 is under 3.70 and the pIC50 was 3.95.
On to `O=S(=O)(ON=C1C=CC(=NOS(=O)(=O)c2ccccc2)C=C1)c1ccccc1`, for which the pEC50 was under 3.70 and the negative-log IC50 (pIC50) is 5.99.
For `O=S1(=O)C2C=CCC1C(c1ccccc1)CC2` (stereo not given), in that order: under 3.00 and under 3.00.
For `N#C/C=C/c1ccc(C#N)cc1`, in that order: under 4.19 and under 4.19.
For `CC(=O)c1c2n(n(-c3ccccc3)c1=O)C(=O)c1nccnc1-2`, in that order: under 3.70 and under 3.70.
`O=C(Nc1ccccc1)c1cc2ccccc2oc1=O`: the pEC50 was under 4.00 and the pIC50 is under 4.00.
`CC1(C)c2ccccc2N2C(c3ccccc3)=NOC21C` (stereo not given): the pEC50 was under 4.59 and the pIC50 is under 4.59.
`O=c1nc2n(cc1/C=C\Br)C1CC(O)C(CO2)O1` (stereo not given): the outcome was inactive.
Turning to `CSCCC(NC(=O)C(CC(C)C)NC(=O)C1CCCN1C(=O)C(Cc1ccccc1)NC(=O)C(Cc1ccccc1)NC(=O)C(CCC(=O)O)NC(=O)OC(C)(C)C)C(N)=O` (stereo not given) (Boc-EFFPLM-NH2; configuration not given here), the pEC50 is under 3.55 and the negative logarithm of the IC50 (pIC50) is under 3.55.
Take `COC(=O)C(CCCC1(c2ccccc2)OCCO1)C(C)=O` (stereo not given): the pEC50 was under 3.70 and the pIC50 is under 3.70.
On to `CN(C)c1ccc(/C=C/C(=O)C(C)(C)C)cc1`, for which the result was inactive.
On the same count and under the same terms, as for `O=C(Nc1ccccc1C(=O)NCc1ccccc1)/C(=C/c1ccccc1O)NC(=O)c1ccccc1`, the entry is “inactive”.
In the case of `CO[C@@H]1[C@H](O)CC[C@]2(CO2)[C@H]1[C@@]1(C)O[C@@H]1CC=C(C)C`, the pEC50 was under 3.70 and the negative logarithm of the IC50 (pIC50) is 4.07.
For the molecule `BrCC[N+]12CC[N+](CCBr)(CC1)C2`, the pEC50 was under 3.28 and the pIC50 is 4.59.
Take `Nc1nc(SCCc2ccccc2)nc2nc3c(c(-c4ccccc4)c12)CCCC3`: the pEC50 was under 3.70 and the pIC50 was under 3.70.
For the molecule `CN(C)CC/C(=N\Nc1ccc(Cl)c(Cl)c1)c1ccccc1`, the outcome was inactive.
In the case of `O=C(O)c1ccc2c3c(n[se]c13)-c1ccccc1C2=O`, the pEC50 was under 5.08 and the negative-log IC50 (pIC50) was under 5.08.
`c1ccc(-c2c[se]nn2)cc1`: the pEC50 is under 3.76 and the negative logarithm of the IC50 (pIC50) is 4.03.

Source of the values: PubChem BioAssay AID179 (DTP/NCI, 2004).
